Experiments:
Format in all cases: cell-based
HEK293 cells = assay: MTT assay; conditions: data not shown
[1] = system: mouse embryonic fibroblasts (MEFs); assay: MTT assay; conditions: data not shown
memory B cells = assay: In vitro plasmablast differentiation, two-phase human B cell model, flow cytometry; conditions: for expression of CD20 marker (CD20+ B cells): day 7 (FIG. 3O-P); for frequency of CD27+ cells: day 4
Description: FIGS. 3A-Y are a combination of graphs and FACS plots showing that targeting BOB1-OCT(s) complex by compound 005 dose-dependently impairs B cells proliferation, activation and differentiation into plasmablasts in the human B cell differentiation in vitro model. Enriched memory B cells from the blood of healthy subjects (n=15) were stimulated at day 0 with anti-F(ab′)2, CD40L, CpG, and IL-2 for four days (activation phase). On day 4, cells were washed and stimulated with IL-2, IL-4, and IL-10 for additional three days (differentiation phase). Compound 005 was added daily to the cultures to a final concentration of 0 (DMSO), 5, 10, 15, 20 μM, as indicated. […] FIG. 3C-H show corresponding summarized data for the frequency (FIG. 3C, E and G) and relative mean fluorescence intensity (MFI; FIG. 3D, F and H) of CD27^+ (FIG. 3C-D), CD38^+ (FIG. 3E-F), and CD20^+ (FIG. 3G-H) B cells analyzed at Day 4. […] FIG. 3K-P show corresponding summarized data for the frequency (Fig. K, M and O) and relative mean fluorescence intensity (MFI; Fig. L, N and P) of CD27^+ (FIG. 3K-L), CD38^+ (FIG. 3M-N), and CD20^+ (FIG. 3O-P) B cells analyzed at Day 7. […] FIG. 3R-Y show the effect of compound 005 on the levels of IgG1 (FIG. 3R), IgG2 (FIG. 3S), IgG3 (FIG. 3T), IgG4 (FIG. 3U), IgA (FIG. 3V), IgE (FIG. 3W), IgM (FIG. 3X) and IgD (FIG. 3Y) immunoglobulin isotypes production at Day 7. Error bars are mean±SD. P values were determined with one-way ANOVA with Geisser-Greenhouse's multiple comparisons test.
Blood samples were obtained from healthy volunteers provided by Sanquin Blood Supply Foundation (Amsterdam, the Netherlands) or from Etablissement Français du Sang (Nantes, France) after written consent was obtained. Peripheral blood mononuclear cells (PBMCs) were isolated through Ficoll-Paque gradient centrifugation on Lymphoprep (Nycomed). Total B cells were isolated from freshly purified PBMCs by negative selection (B cell Isolation Kit II; Miltenyi Biotech, 130-091-151) on magnetic columns using autoMACS Pro Separator according to the manufacturer's instructions. Subsequently, memory and naïve B cells were isolated from negatively-selected CD19^+ B cells by positive and negative selection with CD27 MicroBeads (Miltenyi Biotech, 130-051-601) using autoMACS Pro Separator according to the manufacturer's instructions. Ultimately, purity of the MACS-isolated CD19^+ B cells, CD19^+CD27^+IgD^− memory B cells and CD19^+CD27^−IgD^+ […] was assessed by flow cytometry; purity was >90% for B cells, >65% for memory B cells, and >85% for naive B cells. All cell cultures were carried out in RPMI 1640 medium (Thermo Fisher Scientific) supplemented with 10% FCS, L-glutamine, and penicillin/streptomycin. Cells were incubated at 37° C. in a 5% CO2 atmosphere.
Cells were resuspended in PBS and labelled with Cell Proliferation Dye eFluor 450 (CPD) (eBioscience) at a final concentration of 10 μM at 37° C. for 10 min, kept on ice for 5 min, and washed twice with 10 mL of ice-cold RPMI 1640 10% FCS medium.
B cells were stimulated to differentiate into plasmablasts using a two-phase cell culture protocol as previously described. Briefly, B cells were seeded at 4×10^5 cells/mL in 24-well plates and activated during 4 days with 50 ng/mL recombinant human soluble CD40L (R&D Systems), 2.5 μg/mL CpG oligodeoxynucleotide (ODN) 2006 (Amidogen or Cayla Invivogen), 2 μg/mL F(ab′)2 fragment goat anti-human IgA+IgG+IgM (H+L) polyclonal Abs (anti-BCR) (Jackson ImmunoResearch Laboratories), and 50 U/mL human IL-2 (SARL Pharmaxie or Novartis). Day 4-activated B cells were washed and cultured at the same concentration for three additional days in a fresh medium containing 50 U/mL human IL-2, 10 ng/mL human IL-4 (R&D Systems), and 10 ng/mL human IL-10 (R&D Systems) to induce B cell differentiation into plasmablasts. […]

Q: `Cc1ccc(NC(=O)C2CN(c3nc(NCCCc4ccc(F)cc4)nc(NCCC(=O)O)n3)c3ccccc3O2)cc1Cl` (centres unmarked) [compound 005, 3-((4-(2-((3-chloro-4-methylphenyl)carbamoyl)-2,3-dihydro-4H-benzo[b][1,4]oxazin-4-yl)-6-((3-(4-fluorophenyl)propyl)amino)-1,3,5-triazin-2-yl)amino)propanoic acid] was tested. Which “toxicity for HEK293 cells” value (HEK293 cells; concentrations up to 40 μM) did it give?
A: non-toxic or mildly toxic

Q: What about the “concentration from which inhibitory effect is observed in MTT assay” value (HEK293 cells) of the same compound?
A: ≥ 10 µM

Q: What about the concentration showing toxicity [1] of the same compound?
A: ≥ 80 µM

Q: And the “frequency of CD38+ B cells” value (memory B cells; 5 μM, day 4, mean±SD)?
A: 30.5±25.6%

Q: What about the “proliferating (CPD low) B cells” value (memory B cells; 5 μM, day 4, mean±SD) of the same compound?
A: 66.3±4.8%

Q: And the “frequency of CD38+ B cells” value (memory B cells; 5 μM, day 7)?
A: 68.9±10.2%

Q: What about the “relative proportion of CD27+ cells” value (memory B cells; 5 μM, day 7) of the same compound?
A: 54.3±15.9%

Q: And the “frequency of CD38+ B cells” value (memory B cells; 10 μM, day 4, mean±SD)?
A: 23.9±18.3

Q: And the “proliferating (CPD low) B cells” value (memory B cells; 10 μM, day 4, mean±SD)?
A: 46.7±18.3%

Q: And the “CD20loCD38hi plasmablasts generation, median percentage decrease” value (memory B cells; 10 μM, day 7)?
A: 30.3%

Q: And the “frequency of CD38+ B cells” value (memory B cells; 10 μM, day 7)?
A: 55.5±16.1

Q: And the “relative proportion of CD27+ cells” value (memory B cells; 10 μM, day 7)?
A: 53.6±14.2%

Q: What about the “expression of CD20 marker (CD20+ B cells)” value (memory B cells; 10 μM) of the same compound?
A: 81.7±12.4%

Q: What about the “frequency of CD27+ cells” value (memory B cells; 15 μM) of the same compound?
A: 9.5±11.7%

Q: And the “frequency of CD38+ B cells” value (memory B cells; 15 μM, day 4, mean±SD)?
A: 4.3±3.7%

Q: And the “proliferating (CPD low) B cells” value (memory B cells; 15 μM, day 4, mean±SD)?
A: 34.9±19.2%

Q: And the “CD20loCD38hi plasmablasts generation, median percentage decrease” value (memory B cells; 15 μM, day 7)?
A: 70.5%

Q: And the “frequency of CD38+ B cells” value (memory B cells; 15 μM, day 7)?
A: 26.3±13.9%

Q: And the “expression of CD20 marker (CD20+ B cells)” value (memory B cells; 15 μM)?
A: 85.4±11.7%

Q: What about the “frequency of CD27+ cells” value (memory B cells; 20 μM) of the same compound?
A: 6.4±6.4

Q: And the “frequency of CD38+ B cells” value (memory B cells; 20 μM, day 4, mean±SD)?
A: 2.5±2.2

Q: And the “proliferating (CPD low) B cells” value (memory B cells; 20 μM, day 4, mean±SD)?
A: 20.4±19.0%

Q: What about the “CD20loCD38hi plasmablasts generation, median percentage decrease” value (memory B cells; 20 μM, day 7) of the same compound?
A: 85.2%

Q: What about the “frequency of CD38+ B cells” value (memory B cells; 20 μM, day 7) of the same compound?
A: 13.0±12.9

Q: And the “relative proportion of CD27+ cells” value (memory B cells; 20 μM, day 7)?
A: 9.4±8.1%

Q: What about the “frequencies of naïve B cells” value (memory B cells; with the increase in concentration, day 7) of the same compound?
A: significantly increased

— US20250177412A1, “SMALL-MOLECULE INHIBITORS TARGETING THE BOB1/OCT1 INTERFACE” (NANTES UNIVERSITE, priority 2022, published 2025)
